Laboratory results from patent US20050112099A1, “Tumor antigen BFA5 for prevention and / or treatment of cancer” (Aventis Pasteur, Ltd., priority 2003, published 2005).
Where no end group is shown, it is not given here.

Key:
[1] = system: peptide-loaded T2 cells; assay: 51Cr-release CTL assay using peptide-loaded T2 cells; type: cell-based, human; conditions: listing of the peptide is the result
[2] = system: HLA-A*0201 human T cells; assay: IFN-γ ELISPOT of human T-cell cultures activated with BFA5 peptides; type: cell-based; conditions: listing of the peptide is the result
[3] = Rabbit immunization with BFA5 peptides, IgG titer; type: in vivo; conditions: for IgG titer × 10^5 (after second Immunization): KLH-coupled peptide with Freund's Incomplete Adjuvant, two weeks later; for IgG titer × 10^5 (after first Immunization): peptide emulsion with Freund's Complete Adjuvant
Description: Polyclonal antisera were generated against the following series of 22- to 23-mer peptides of BFA5:
Prebleed samples from rabbits were processed and stored at −20° C. Rabbits were immunized as follows: 1) the peptides were administered as an emulsion with Freund's Complete Adjuvant (FCA); and, 2) two weeks later, the peptides were coupled with Keyhole-Limpet Hemocyanin (KLH)-coupled and administered as an emulsion with Freund's Incomplete Adjuvant FIA.

With AELQMTLKL the “BFA5 peptides inducing CTL lysis of pulsed cells” value (from here on “BFA5 peptides inducing CTL lysis”) ([1]; Donor AP10) was “AELQMTLKL”, the “BFA5 peptides inducing CTL lysis” value ([1]; Donor AP31) was “AELQMTLKL” and the “BFA5 peptides eliciting high IFN-γ release (>200 spots/100,000 cells)” value ([2]; Donor AP10) was “AELQMTLKL”.
In the case of ALRIQDIEL, the “BFA5 peptides eliciting high IFN-γ release (>200 spots/100,000 cells)” value ([2]; Donor AP10) is reported as “ALRIQDIEL”.
With ATCGMKVSI the “BFA5 peptides inducing CTL lysis” value ([1]; Donor AP10) was “ATCGMKVSI” and the “BFA5 peptides eliciting high IFN-γ release (>200 spots/100,000 cells)” value ([2]; Donor AP10) was “ATCGMKVSI”.
In the case of AVYSEILSV, the “BFA5 peptides eliciting high IFN-γ release (>200 spots/100,000 cells)” value ([2]; Donor AP10) is reported as “AVYSEILSV”.
In the case of GVTAEHYAV, the “BFA5 peptides eliciting high IFN-γ release (>200 spots/100,000 cells)” value ([2]; Donor AP31) is reported as “GVTAEHYAV”.
For ILKEKNAEL, the “BFA5 peptides eliciting high IFN-γ release (>200 spots/100,000 cells)” value ([2]; Donor AP10) was “ILKEKNAEL” and the “BFA5 peptides eliciting high IFN-γ release (>200 spots/100,000 cells)” value ([2]; Donor AP31) was “ILKEKNAEL”.
In the case of KCTALMLAV, the “BFA5 peptides eliciting high IFN-γ release (>200 spots/100,000 cells)” value ([2]; Donor AP10) is reported as “KCTALMLAV”.
With “KLH-AENTMLTSKLKEKQDKEILEAEI ({KLH}-AENTMLTSKLKEKQDKEILEAEI) [CLP 2981]” the “IgG titer × 10^5 (after second Immunization)” value ([3]; Rb1) was 256 × 10^5, the “IgG titer × 10^5 (after first Immunization)” value ([3]; Rb1) was 8 × 10^5 and the “IgG titer × 10^5 (after second Immunization)” value ([3]; Rb2) was 64 × 10^5. For the same substance, the “IgG titer × 10^5 (after first Immunization)” value ([3]; Rb2) was 4 × 10^5.
With “KLH-DEILPSESKQKDYEENSWDTESL ({KLH}-DEILPSESKQKDYEENSWDTESL) [CLP 2979]” the “IgG titer × 10^5 (after second Immunization)” value ([3]; Rb1) was 256 × 10^5, the “IgG titer × 10^5 (after first Immunization)” value ([3]; Rb1) was 12 × 10^5 and the “IgG titer × 10^5 (after second Immunization)” value ([3]; Rb2) was 512 × 10^5. The “IgG titer × 10^5 (after first Immunization)” value ([3]; Rb2) was 25 × 10^5.
For “KLH-MTKRKKTINLNIQDAQKRTALHW ({KLH}-MTKRKKTINLNIQDAQKRTALHW) [CLP 2977]”, the “IgG titer × 10^5 (after second Immunization)” value ([3]; Rb1) was 256 × 10^5, the “IgG titer × 10^5 (after first Immunization)” value ([3]; Rb1) was 25 × 10^5 and the “IgG titer × 10^5 (after second Immunization)” value ([3]; Rb2) was 64 × 10^5. For the same substance, the “IgG titer × 10^5 (after first Immunization)” value ([3]; Rb2) was 6 × 10^5.
With “KLH-NYNNHLKNRIYQYEKEKAETENS ({KLH}-NYNNHLKNRIYQYEKEKAETENS) [CLP 2982]” the “IgG titer × 10^5 (after second Immunization)” value ([3]; Rb1) was 64 × 10^5, the “IgG titer × 10^5 (after first Immunization)” value ([3]; Rb1) was 2/2 × 10^5 and the “IgG titer × 10^5 (after second Immunization)” value ([3]; Rb2) was 32 × 10^5. For the same substance, the “IgG titer × 10^5 (after first Immunization)” value ([3]; Rb2) was 2/2 × 10^5.
For “KLH-RLTLNQEEEKRRNADILNEKIRE ({KLH}-RLTLNQEEEKRRNADILNEKIRE) [CLP 2980]”, the “IgG titer × 10^5 (after second Immunization)” value ([3]; Rb1) was 1024 × 10^5, the “IgG titer × 10^5 (after first Immunization)” value ([3]; Rb1) was 25 × 10^5 and the “IgG titer × 10^5 (after second Immunization)” value ([3]; Rb2) was 128 × 10^5. For the same substance, the “IgG titer × 10^5 (after first Immunization)” value ([3]; Rb2) was 12 × 10^5.
In the case of “KLH-TSEKFTWPAKGRPRKIAWEKKED ({KLH}-TSEKFTWPAKGRPRKIAWEKKED) [CLP 2978]”, the “IgG titer × 10^5 (after second Immunization)” value ([3]; Rb1) is reported as 64 × 10^5, the “IgG titer × 10^5 (after first Immunization)” value ([3]; Rb1) is reported as 25/25 × 10^5 and the “IgG titer × 10^5 (after second Immunization)” value ([3]; Rb2) is reported as 256 × 10^5. For the same substance, the “IgG titer × 10^5 (after first Immunization)” value ([3]; Rb2) was 25/25 × 10^5.
With KSQEPAFHI the “BFA5 peptides eliciting high IFN-γ release (>200 spots/100,000 cells)” value ([2]; Donor AP31) was “KSQEPAFHI”.
For KVMEINREV, the “BFA5 peptides eliciting high IFN-γ release (>200 spots/100,000 cells)” value ([2]; Donor AP10) was “KVMEINREV”.
With KVSIPTKAL the “BFA5 peptides inducing CTL lysis” value ([1]; Donor AP31) was “KVSIPTKAL” and the “BFA5 peptides eliciting high IFN-γ release (>200 spots/100,000 cells)” value ([2]; Donor AP10) was “KVSIPTKAL”.
For MLKKEIAML, the “BFA5 peptides eliciting high IFN-γ release (>200 spots/100,000 cells)” value ([2]; Donor AP31) was “MLKKEIAML”.
For MLKLEIATL, the “BFA5 peptides inducing CTL lysis” value ([1]; Donor AP31) was “MLKLEIATL”, the “BFA5 peptides eliciting high IFN-γ release (>200 spots/100,000 cells)” value ([2]; Donor AP10) was “MLKLEIATL” and the “BFA5 peptides eliciting high IFN-γ release (>200 spots/100,000 cells)” value ([2]; Donor AP31) was “MLKLEIATL”.
For NLNYAGDAL, the “BFA5 peptides eliciting high IFN-γ release (>200 spots/100,000 cells)” value ([2]; Donor AP10) was “NLNYAGDAL” and the “BFA5 peptides eliciting high IFN-γ release (>200 spots/100,000 cells)” value ([2]; Donor AP31) was “NLNYAGDAL”.
In the case of NLVDVYGNM, the “BFA5 peptides inducing CTL lysis” value ([1]; Donor AP10) is reported as “NLVDVYGNM” and the “BFA5 peptides eliciting high IFN-γ release (>200 spots/100,000 cells)” value ([2]; Donor AP10) is reported as “NLVDVYGNM”.
For QIMEYIRKL, the “BFA5 peptides inducing CTL lysis” value ([1]; Donor AP31) was “QIMEYIRKL”, the “BFA5 peptides eliciting high IFN-γ release (>200 spots/100,000 cells)” value ([2]; Donor AP10) was “QIMEYIRKL” and the “BFA5 peptides eliciting high IFN-γ release (>200 spots/100,000 cells)” value ([2]; Donor AP31) was “QIMEYIRKL”.
In the case of QLQSKNMWL, the “BFA5 peptides inducing CTL lysis” value ([1]; Donor AP31) is reported as “QLQSKNMWL”, the “BFA5 peptides eliciting high IFN-γ release (>200 spots/100,000 cells)” value ([2]; Donor AP10) is reported as “QLQSKNMWL” and the “BFA5 peptides eliciting high IFN-γ release (>200 spots/100,000 cells)” value ([2]; Donor AP31) is reported as “QLQSKNMWL”.
With SIPTKALEL the “BFA5 peptides inducing CTL lysis” value ([1]; Donor AP31) was “SIPTKALEL” and the “BFA5 peptides eliciting high IFN-γ release (>200 spots/100,000 cells)” value ([2]; Donor AP10) was “SIPTKALEL”.
In the case of SLKINLNYA, the “BFA5 peptides inducing CTL lysis” value ([1]; Donor AP31) is reported as “SLKINLNYA”, the “BFA5 peptides eliciting high IFN-γ release (>200 spots/100,000 cells)” value ([2]; Donor AP10) is reported as “SLKINLNYA” and the “BFA5 peptides eliciting high IFN-γ release (>200 spots/100,000 cells)” value ([2]; Donor AP31) is reported as “SLKINLNYA”.
With SLSKILDTV the “BFA5 peptides inducing CTL lysis” value ([1]; Donor AP31) was “SLSKILDTV”, the “BFA5 peptides eliciting high IFN-γ release (>200 spots/100,000 cells)” value ([2]; Donor AP10) was “SLSKILDTV” and the “BFA5 peptides eliciting high IFN-γ release (>200 spots/100,000 cells)” value ([2]; Donor AP31) was “SLSKILDTV”.
With SLTPLLLSI the “BFA5 peptides inducing CTL lysis” value ([1]; Donor AP31) was “SLTPLLLSI”, the “BFA5 peptides eliciting high IFN-γ release (>200 spots/100,000 cells)” value ([2]; Donor AP10) was “SLTPLLLSI” and the “BFA5 peptides eliciting high IFN-γ release (>200 spots/100,000 cells)” value ([2]; Donor AP31) was “SLTPLLLSI”.
With SVPNKAFEL the “BFA5 peptides eliciting high IFN-γ release (>200 spots/100,000 cells)” value ([2]; Donor AP10) was “SVPNKAFEL”.
For SVPNKALEL, the “BFA5 peptides eliciting high IFN-γ release (>200 spots/100,000 cells)” value ([2]; Donor AP10) was “SVPNKALEL”.
For TVSQKDVCL, the “BFA5 peptides eliciting high IFN-γ release (>200 spots/100,000 cells)” value ([2]; Donor AP10) was “TVSQKDVCL”.
In the case of VFAADICGV, the “BFA5 peptides eliciting high IFN-γ release (>200 spots/100,000 cells)” value ([2]; Donor AP31) is reported as “VFAADICGV”.
In the case of VLKKKLSEA, the “BFA5 peptides eliciting high IFN-γ release (>200 spots/100,000 cells)” value ([2]; Donor AP31) is reported as “VLKKKLSEA”.
In the case of YLLHENCML, the “BFA5 peptides inducing CTL lysis” value ([1]; Donor AP10) is reported as “YLLHENCML”, the “BFA5 peptides eliciting high IFN-γ release (>200 spots/100,000 cells)” value ([2]; Donor AP10) is reported as “YLLHENCML” and the “BFA5 peptides eliciting high IFN-γ release (>200 spots/100,000 cells)” value ([2]; Donor AP31) is reported as “YLLHENCML”.
